Results: patent US10532995B2, “Substituted pyrazole compounds as serine protease inhibitors” (VERSEON CORPORATION, priority 2015, dated 2020)
Structures can show the parent of a compound that is named as a salt.

target: T1, Human thrombin (Homo sapiens, UniProt P00734); assay: Thrombin protease activity inhibition, chromogenic substrate S-2238; format: biochemical; details: 3 nM thrombin, 125 μM S-2238, 10 min pre-incubation, RT
T1 construct: purchased Haematologic Technologies Inc
Procedure: The thrombin activity reported herein (e.g., Table A) was obtained as follows. […] Thrombin was assayed in buffer containing 0.05 M Tris (pH 7.4), 0.015 M NaCl and 0.01% PEG-8000. The final concentration of enzyme used was 3 nM thrombin. […] All assays were performed in 96-well microtiter plates at room temperature (RT). […] Inhibitor IC50 values were determined by adding test compound as ten point, three-fold serial dilutions in buffer solution, as known in the art. The plate was read at 10 minutes after substrate addition. The IC50 was calculated by plotting the percent (%) inhibition against compound concentration and fitting the data to a constrained four parameter sigmoidal curve, as known in the art.

Row | Compound | IC50 [nM]
1 | C=CCOC(=O)N1CCN(C(=O)CN2CCOCC2)CC1c1cc(NCc2ccc(Cl)s2)n(C(=O)c2cscn2)n1 (stereo not shown) [Entry 241, prop-2-en-1-yl 2-(5-[(5-chlorothiophen-2-yl)methyl]amino-1-(1,3-thiazole-4-carbonyl)-1H-pyrazol-3-yl)-4-[2-(morpholin-4-yl)acetyl]piperazine-1-carboxylate] | 100 to 1000
2 | CC1(c2cc(NCc3ccc(Cl)s3)n(C(=O)c3ccsc3)n2)CCNC1=O (stereo not shown) [Entry 124, 3-(5-[(5-chlorothiophen-2-yl)methyl]amino-1-(thiophene-3-carbonyl)-1H-pyrazol-3-yl)-3-methylpyrrolidin-2-one] | 100 to 1000
3 | C=CCOC(=O)N1CCC(c2nn(C(=O)C(C)(C)C)c(NCc3ccc(Cl)s3)c2F)CC1 [Entry 263, prop-2-en-1-yl 4-(5-[(5-chlorothiophen-2-yl)methyl]amino-1-(2,2-dimethylpropanoyl)-4-fluoro-1H-pyrazol-3-yl)piperidine-1-carboxylate] | < 100
4 | Cc1cccc(CN2CCC(c3cc(NCc4ccc(Cl)s4)[nH]n3)CC2)n1 [Entry 220, N-[(5-chlorothiophen-2-yl)methyl]-3-1-[(6-methylpyridin-2-yl)methyl]piperidin-4-yl-1H-pyrazol-5-amine] | > 100000
5 | C=CCOC(=O)N1CCN(C(=O)N2CCOCC2)CC1c1cc(NCc2ccc(Cl)s2)[nH]n1 (stereo not shown) [Entry 249, prop-2-en-1-yl 2-(5-[(5-chlorothiophen-2-yl)methyl]amino-1H-pyrazol-3-yl)-4-(morpholine-4-carbonyl)piperazine-1-carboxylate] | > 100000
6 | CS(=O)(=O)N1CCC(c2cc(NCc3ccc(Cl)s3)[nH]n2)C1 (stereo not shown) [Entry 175, N-[(5-chlorothiophen-2-yl)methyl]-3-(1-methanesulfonylpyrrolidin-3-yl)-1H-pyrazol-5-amine] | > 100000
7 | CN(C)S(=O)(=O)N1CCC(c2cc(NCc3ccc(Cl)s3)[nH]n2)CC1 [Entry 138, 4-(5-[(5-chlorothiophen-2-yl)methyl]amino-1H-pyrazol-3-yl)-N,N-dimethylpiperidine-1-sulfonamide] | > 100000
8 | COc1ccccc1C(=O)n1nc(C2CCCN2C(=O)C(C)C)cc1NCc1ccc(Cl)s1 (stereo not shown) [Entry 91, 1-[2-(5-[(5-chlorothiophen-2-yl)methyl]amino-1-(2-methoxybenzoyl)-1H-pyrazol-3-yl)pyrrolidin-1-yl]-2-methylpropan-1-one] | 100 to 1000
9 | FC(F)(F)CN1CCC(c2cc(NCc3ccc(Cl)s3)[nH]n2)CC1 [Entry 198, N-[(5-chlorothiophen-2-yl)methyl]-3-[1-(2,2,2-trifluoroethyl)piperidin-4-yl]-1H-pyrazol-5-amine] | > 100000
10 | Clc1ccc(CNc2cc(C3CCN(Cc4ncco4)CC3)n[nH]2)s1 [Entry 193, N-[(5-chlorothiophen-2-yl)methyl]-3-[1-(1,3-oxazol-2-ylmethyl)piperidin-4-yl]-1H-pyrazol-5-amine] | > 100000
11 | CC1(c2cc(NCc3ccc(Cl)s3)n(C(=O)c3ccsc3)n2)CCCNC1 (stereo not shown) [Entry 178, N-[(5-chlorothiophen-2-yl)methyl]-3-(3-methylpiperidin-3-yl)-1-(thiophene-3-carbonyl)-1H-pyrazol-5-amine] | 100 to 1000
12 | COCC(C)(C)C(=O)n1nc(C2(C)CCN(C(=O)OC(C)(C)C)CC2)cc1NCc1ccc(Cl)s1 [Entry 298, tert-butyl 4-(5-[(5-chlorothiophen-2-yl)methyl]amino-1-(3-methoxy-2,2-dimethylpropanoyl)-1H-pyrazol-3-yl)-4-methylpiperidine-1-carboxylate] | < 100
13 | C=CCOC(=O)N1CCCC(c2cc(NCc3ccc(Cl)s3)[nH]n2)CC1 (stereo not shown) [Entry 265, prop-2-en-1-yl 4-(5-[(5-chlorothiophen-2-yl)methyl]amino-1H-pyrazol-3-yl)azepane-1-carboxylate] | > 100000
14 | O=C(CN1CCC(c2cc(NCc3ccc(Cl)s3)[nH]n2)CC1)N1CCOCC1 [Entry 111, 2-[4-(5-[(5-chlorothiophen-2-yl)methyl]amino-1H-pyrazol-3-yl)piperidin-1-yl]-1-(morpholin-4-yl)ethan-1-one] | > 100000
15 | CC(C)(C)C(=O)n1nc(C2CC3CCC(C2)N3S(C)(=O)=O)cc1NCc1ccc(Cl)s1 (stereo not shown) [Entry 81, 1-(5-[(5-chlorothiophen-2-yl)methyl]amino-3-8-methanesulfonyl-8-azabicyclo[3.2.1]octan-3-yl-1H-pyrazol-1-yl)-2,2-dimethylpropan-1-one] | < 100
16 | CC(C)(C)OC(=O)N1CCC(C)(c2cc(NCc3ccc(Cl)s3)n(C(=O)c3ccsc3)n2)CC1 [Entry 300, tert-butyl 4-(5-[(5-chlorothiophen-2-yl)methyl]amino-1-(thiophene-3-carbonyl)-1H-pyrazol-3-yl)-4-methylpiperidine-1-carboxylate] | < 100
17 | O=C(N1CCOCC1)N1C2CCC1CC(c1cc(NCc3ccc(Cl)s3)[nH]n1)C2 (stereo not shown) [Entry 214, N-[(5-chlorothiophen-2-yl)methyl]-3-[8-(morpholine-4-carbonyl)-8-azabicyclo[3.2.1]octan-3-yl]-1H-pyrazol-5-amine] | > 100000
18 | CS(=O)(=O)N1C2CCC1CC(c1cc(NCc3ccc(Cl)s3)[nH]n1)C2 (stereo not shown) [Entry 226, N-[(5-chlorothiophen-2-yl)methyl]-3-8-methanesulfonyl-8-azabicyclo[3.2.1]octan-3-yl-1H-pyrazol-5-amine] | > 100000
19 | COc1ccccc1C(=O)n1nc(C2CCCO2)cc1NCc1ccc(Cl)s1 (stereo not shown) [Entry 156, N-[(5-chlorothiophen-2-yl)methyl]-1-(2-methoxybenzoyl)-3-(oxolan-2-yl)-1H-pyrazol-5-amine] | < 100
20 | CC(C)(C)C(=O)n1nc(C2CCN(CC(=O)O)CC2)cc1NCc1ccc(Cl)s1 [Entry 109, 2-[4-(5-[(5-chlorothiophen-2-yl)methyl]amino-1-(2,2-dimethylpropanoyl)-1H-pyrazol-3-yl)piperidin-1-yl]acetic acid] | 100 to 1000

Now from value to compound:

Row | IC50 [nM] | Compound
21 | > 100000 | CN(C)C(=O)N1CCC(c2cc(NCc3ccc(Cl)s3)n(C(=O)N(C)C)n2)CC1 [Entry 136, 4-(5-[(5-chlorothiophen-2-yl)methyl]amino-1-(dimethylcarbamoyl)-1H-pyrazol-3-yl)-N,N-dimethylpiperidine-1-carboxamide]
22 | > 100000 | Clc1ccc(CNc2cc(C3CCN(Cc4cnco4)CC3)n[nH]2)s1 [Entry 194, N-[(5-chlorothiophen-2-yl)methyl]-3-[1-(1,3-oxazol-5-ylmethyl)piperidin-4-yl]-1H-pyrazol-5-amine]
23 | > 100000 | C=CCOC(=O)N1CCC(c2n[nH]c(NCc3ccc(Cl)s3)c2F)CC1 [Entry 269, prop-2-en-1-yl 4-(5-[(5-chlorothiophen-2-yl)methyl]amino-4-fluoro-1H-pyrazol-3-yl)piperidine-1-carboxylate]
24 | > 100000 | CC(C)(C)C(=O)N1CC(c2cc(NCc3ccc(Cl)s3)[nH]n2)C1 [Entry 97, 1-[3-(5-[(5-chlorothiophen-2-yl)methyl]amino-1H-pyrazol-3-yl)azetidin-1-yl]-2,2-dimethylpropan-1-one]
25 | 100 to 1000 | CN(C)S(=O)(=O)N1CCC(c2cc(NCc3ccc(Cl)s3)n(C(=O)C(C)(C)C)n2)CC1 [Entry 133, 4-(5-[(5-chlorothiophen-2-yl)methyl]amino-1-(2,2-dimethylpropanoyl)-1H-pyrazol-3-yl)-N,N-dimethylpiperidine-1-sulfonamide]
26 | > 100000 | Clc1ccc(CNc2cc(C3CCCN3)n[nH]2)s1 (stereo not shown) [Entry 189, N-[(5-chlorothiophen-2-yl)methyl]-3-(pyrrolidin-2-yl)-1H-pyrazol-5-amine]
27 | 10000 to 100000 | COc1ccccc1C(=O)n1nc(C2CNC2)cc1NCc1ccc(Cl)s1 [Entry 127, 3-(azetidin-3-yl)-N-[(5-chlorothiophen-2-yl)methyl]-1-(2-methoxybenzoyl)-1H-pyrazol-5-amine hydrochloride]
28 | > 100000 | O=C(N1CCOCC1)N1CCNC(c2cc(NCc3ccc(Cl)s3)[nH]n2)C1 (stereo not shown) [Entry 212, N-[(5-chlorothiophen-2-yl)methyl]-3-[4-(morpholine-4-carbonyl)piperazin-2-yl]-1H-pyrazol-5-amine hydrochloride]
29 | < 100 | CC(C)(C)C(=O)N1CCC(c2cc(NCc3ccc(Cl)s3)n(C(=O)c3ccsc3)n2)CC1 [Entry 101, 1-[4-(5-[(5-chlorothiophen-2-yl)methyl]amino-1-(thiophene-3-carbonyl)-1H-pyrazol-3-yl)piperidin-1-yl]-2,2-dimethylpropan-1-one]
30 | 100 to 1000 | CC1(C(=O)n2nc(C3(C)CCNC3=O)cc2NCc2ccc(Cl)s2)CCOCC1 (stereo not shown) [Entry 122, 3-(5-[(5-chlorothiophen-2-yl)methyl]amino-1-(4-methyloxane-4-carbonyl)-1H-pyrazol-3-yl)-3-methylpyrrolidin-2-one]
31 | 1000 to 10000 | O=S(=O)(c1ccccc1)N1CCC(c2cc(NCc3ccc(Cl)s3)[nH]n2)CC1 [Entry 130, 3-[1-(benzenesulfonyl)piperidin-4-yl]-N-[(5-chlorothiophen-2-yl)methyl]-1H-pyrazol-5-amine]
32 | 100 to 1000 | CC(C)(C)C(=O)n1nc(C2(C)CCCNC2=O)cc1NCc1ccc(Cl)s1 (stereo not shown) [Entry 115, 3-(5-[(5-chlorothiophen-2-yl)methyl]amino-1-(2,2-dimethylpropanoyl)-1H-pyrazol-3-yl)-3-methylpiperidin-2-one]
33 | < 100 | CC(C)(C)OC(=O)N1CCCC(c2cc(NCc3ccc(Cl)s3)n(C(=O)C(C)(C)C)n2)C1 (stereo not shown) [Entry 279, tert-butyl 3-(5-[(5-chlorothiophen-2-yl)methyl]amino-1-(2,2-dimethylpropanoyl)-1H-pyrazol-3-yl)piperidine-1-carboxylate]
34 | < 100 | CC(C)(C)OC(=O)N1CCCC(c2cc(NCc3ccc(Cl)s3)n(C(=O)c3ccsc3)n2)C1 (stereo not shown) [Entry 289, tert-butyl 3-(5-[(5-chlorothiophen-2-yl)methyl]amino-1-(thiophene-3-carbonyl)-1H-pyrazol-3-yl)piperidine-1-carboxylate]
